Values of other authors in patent US7960102B2, “Regulated aptamer therapeutics” (Archemix Corp., priority 2002, dated 2011).

Target: N1 aptamer
Details: 10 nM labeled N1 aptamer, 1×SB, room temperature, three experiments; read-out: Kd of neomycin for aptamer (protection from T1 cleavage at G27)

For neomycin, the Kd is given as 940 ± 60 nM.
